Experimental data taken from patent US8624034B2, “Fluoro-pyridinone derivatives useful as antibacterial agents” (Pfizer Inc., priority 2011, dated 2014).
Converted amounts (≈) assume the structure as drawn.

Assays:
[1] = target: T1, Pseudomonas aeruginosa LpxC enzyme (Pseudomonas aeruginosa, UniProt P47205); assay: IC50 assay, LpxC enzyme from P. aeruginosa (PA LpxC enzyme IC50); format: biochemical; conditions: Table 2; LpxC enzyme 0.1 nM, 25° C., 1 hour; read-out: PA:IC50
T1 construct: made in house; host or cells: E. coli
T1 sequence (P47205 1-303): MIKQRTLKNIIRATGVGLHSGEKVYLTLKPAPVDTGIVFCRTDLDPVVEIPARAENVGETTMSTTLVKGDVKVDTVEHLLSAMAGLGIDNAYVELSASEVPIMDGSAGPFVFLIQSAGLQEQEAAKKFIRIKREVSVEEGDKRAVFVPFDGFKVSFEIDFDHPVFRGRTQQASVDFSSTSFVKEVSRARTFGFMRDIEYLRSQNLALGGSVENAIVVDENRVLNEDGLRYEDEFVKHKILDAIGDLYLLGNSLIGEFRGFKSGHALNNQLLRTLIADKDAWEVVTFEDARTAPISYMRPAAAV
Outline: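 IC50 values came from percent conversion, referenced to a no-enzyme control. Conversion was read by RapidFire HTMS mass spectrometry after HCl quench of the 1 h enzyme reaction.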

[2] = system: Acinetobacter baumannii/haemolyticus, multidrug-resistant clinical isolate (AB-3167); assay: MIC determination, AB-3167; format: cell-based; conditions: Table 2, lower of duplicate values
Outline: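 MIC read visually after overnight growth across 2-fold concentration steps in the CLSI dilution method against the multidrug-resistant clinical isolate. Duplicate determinations, lower value reported when within 2-fold, otherwise repeated; every run checked with control organisms and reference drugs.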

[3] = system: Escherichia coli EC-1: VOGEL, mouse virulent; assay: MIC determination, EC-1; format: cell-based; conditions: Escherichia coli, read-out: EC-1 (MIC), Table 2, lower of duplicate values
Outline: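 Duplicate runs differing by more than 2-fold were repeated, and otherwise the lower MIC was kept. The test organism was E. coli EC-1 (VOGEL, mouse virulent), incubated overnight across 2-fold compound dilutions following CLSI guidelines. The MIC was read visually as the lowest concentration inhibiting growth relative to drug-free control.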

[4] = system: Pseudomonas aeruginosa UI-18: wild-type (PA-7); assay: MIC determination, PA-7; format: cell-based; conditions: Table 2, lower of duplicate values
Procedure: The in vitro antibacterial activity of compounds described in the Examples was evaluated by minimum inhibitory concentration (MIC) testing according to Clinical and Laboratory Standards Institute (CLSI). See: Clinical and Laboratory Standards Institute. Methods for Dilution Antimicrobial Susceptibility Tests for Bacteria that Grow Aerobically; Approved Standard-Eighth Edition. CLSI document M7-A8 [ISBN 1-56238-689-1]. Clinical and Laboratory Standards Institute, 940 West Valley Road, Suite 1400, Wayne, Pa. 19087-1898 USA, 2006; also Clinical and Laboratory Standards Institute. Performance Standards for Antimicrobial Susceptibility Testing; Twentieth Informational Supplement. CLSI document M100-S20 [ISBN 1-56238-716-2]. Clinical and Laboratory Standards Institute.
The MIC determination is a standard laboratory method for evaluating the antibacterial activity of a compound. The MIC represents the lowest drug concentration that inhibits visible growth of bacteria following overnight incubation. […] Typically, the drug concentration range is broken down into 2-fold increments (e.g. 0.06 μg/mL, 0.12 μg/mL. 0.25 μg/mL, 0.50 μg/mL, 1.0 μg/mL, etc.) and the various drug concentrations are all individually incubated overnight with approximately the same number of bacteria. The MIC is then determined by visually inspecting the drug effect at each concentration, and identifying the lowest drug concentration that has inhibited bacterial growth as compared to the drug free control. Typically, bacteria continue to grow at drug concentrations lower than the MIC and don't grow at concentrations at and above the MIC.
The MIC values described in Table 2 and 3 below were derived from assays wherein each test compound was evaluated in duplicate. In cases where the duplicate values varied by 0-2-fold, the lower of the two values was reported below. Generally speaking, if the duplicate values varied by more than 2-fold, the assay was considered non-valid and was repeated until the variation between duplicate runs was ≦2-fold. In line with the CLSI guidelines referred to above, both control organisms and reference compounds were utilized in each MIC assay to provide proper quality control. MIC values generated with these control organisms and reference compounds were required to fall within a defined range for the assay to be considered valid and be included herein. Those skilled in the art will recognize that MIC values can and do vary from experiment to experiment. Generally speaking, it should be recognized that MIC values often vary +/−2-fold from experiment to experiment. While a single MIC is reported for each compound and each microorganism, the reader should not conclude that each compound was only tested once. Several of the compounds were subjected to multiple tests. The data reported in Tables 2 and 3 is reflective of the compounds relative activity and different MICs may have been generated on these occasions in line with the guidelines described above.
The following bacterial strains were used in these MIC determinations:
1) Pseudomonas aeruginosa UI-18: Wild-type, labeled as PA-7 in Tables 2 and 3;

Compound | IC50 [1] [nM] | MIC [2] [µg/mL] | MIC [3] [µg/mL] | MIC [4] [µg/mL]
C[C@@](CCn1cc(F)c(-c2ccccc2)c(O)c1=O)(C(=O)NO)S(C)(=O)=O [Example 40, (2R)-4-(5-Fluoro-3-hydroxy-2-oxo-4-phenylpyridin-1(2H)-yl)-N-hydroxy-2-methyl-2-(methylsulfonyl)butanamide] | > 100 | 64 (≈ 161 µM) | 16 (≈ 40.2 µM) | 16 (≈ 40.2 µM)
C[C@@](CCn1cc(F)c(-c2cccc(Oc3nccs3)c2)cc1=O)(C(=O)NO)S(C)(=O)=O [Example 49, (2R)-4-{5-Fluoro-2-oxo-4-[3-(1,3-thiazol-2-yloxy)phenyl]pyridin-1(2H)-yl}-N-hydroxy-2-methyl-2-(methylsulfonyl)butanamide] | 0.758 | > 64 | 0.25 (≈ 0.519 µM) | 2 (≈ 4.15 µM)
C[C@@](CCn1cc(F)c(-c2ccc(OC3CC3)cc2)cc1=O)(C(=O)NO)S(C)(=O)=O [Example 46, (2R)-4-{4-[4-(Cyclopropyloxy)phenyl]-5-fluoro-2-oxopyridin-1(2H)-yl}-N-hydroxy-2-methyl-2-(methylsulfonyl)butanamide] | 0.229 | > 64 | 0.125 (≈ 0.285 µM) | 0.5 (≈ 1.14 µM)
C[C@@](CCn1cc(F)c(-c2ccc3nccnc3c2)cc1=O)(C(=O)NO)S(C)(=O)=O [Example 24, (2R)-4-(5-Fluoro-2-oxo-4-quinoxalin-6-ylpyridin-1(2H)-yl)-N-hydroxy-2-methyl-2-(methylsulfonyl)butanamide] | 1.23 | > 64 | 4 (≈ 9.21 µM) | 4 (≈ 9.21 µM)
Cc1cnn(-c2ccc(-c3cc(=O)n(CC[C@](C)(C(=O)NO)S(C)(=O)=O)cc3F)cc2)n1 [Example 23, (2R)-4-{5-Fluoro-4-[4-(4-methyl-2H-1,2,3-triazol-2-yl)phenyl]-2-oxopyridin-1(2H)-yl}-N-hydroxy-2-methyl-2-(methylsulfonyl)butanamide] | 0.287 | > 64 | 0.06 (≈ 0.129 µM) | 0.5 (≈ 1.08 µM)
[2H]C([2H])([2H])Oc1ccc(-c2cc(=O)n(CC[C@](C)(C(=O)NO)S(C)(=O)=O)cc2F)cc1 [Example 44, (2R)-4-[5-Fluoro-4-(4-trideuteromethoxyphenyl)-2-oxopyridin-1(2H)-yl]-N-hydroxy-2-methyl-2-(methylsulfonyl)butanamide] | 0.664 | > 64 | 0.25 (≈ 0.602 µM) | 0.25 (≈ 0.602 µM)
C[C@@](CCn1cc(F)c(-c2ccc(-c3ncccn3)cc2)cc1=O)(C(=O)NO)S(C)(=O)=O [Example 20, (2R)-4-[5-Fluoro-2-oxo-4-(4-pyrimidin-2-ylphenyl)pyridin-1(2H)-yl]-N-hydroxy-2-methyl-2-(methylsulfonyl)butanamide] | 0.945 | > 64 | 0.125 (≈ 0.271 µM) | 1 (≈ 2.17 µM)
C[C@@](CCn1cc(F)c(-c2ccc(OC3COC3)cc2)cc1=O)(C(=O)NO)S(C)(=O)=O [Example 15, (2R)-4-{5-fluoro-4-[4-(oxetan-3-yloxy)phenyl]-2-oxopyridin-1(2H)-yl}-N-hydroxy-2-methyl-2-(methylsulfonyl)butanamide] | 2.05 | > 64 | 16 (≈ 35.2 µM) | 16 (≈ 35.2 µM)
C[C@@](CCn1cc(F)c(-c2ccc(Cl)cc2F)cc1=O)(C(=O)NO)S(C)(=O)=O [Example 16, (2R)-4-[4-(4-Chloro-2-fluorophenyl)-5-fluoro-2-oxopyridin-1(2H)-yl]-N-hydroxy-2-methyl-2-(methylsulfonyl)butanamide] | 0.336 | > 64 | 0.25 (≈ 0.575 µM) | 0.5 (≈ 1.15 µM)
COc1cnn(-c2ccc(-c3cc(=O)n(CC[C@](C)(C(=O)NO)S(C)(=O)=O)cc3F)cc2)n1 [Example 22, (2R)-4-{5-Fluoro-4-[4-(4-methoxy-2H-1,2,3-triazol-2-yl)phenyl]-2-oxopyridin-1(2H)-yl}-N-hydroxy-2-methyl-2-(methylsulfonyl)butanamide] | 0.181 | > 64 | ≤ 0.06 | 0.5 (≈ 1.04 µM)
C[C@@](CCn1cc(F)c(-c2ccc(OCC(F)(F)F)cc2)cc1=O)(C(=O)NO)S(C)(=O)=O [Example 7, (2R)-4-{5-Fluoro-2-oxo-4-[4-(2,2,2-trifluoroethoxy)phenyl]pyridin-1(2H)-yl}-N-hydroxy-2-methyl-2-(methylsulfonyl)butanamide] | 0.576 | > 64 | 0.25 (≈ 0.52 µM) | 1 (≈ 2.08 µM)
C[C@@](CCn1cc(F)c(-c2ccc(OC(F)(F)F)cc2)cc1=O)(C(=O)NO)S(C)(=O)=O [Example 30, (2R)-4-{5-Fluoro-2-oxo-4-[4-(trifluoromethoxy)phenyl]pyridin-1(2H)-yl}-N-hydroxy-2-methyl-2-(methylsulfonyl)butanamide] | 0.106 | > 64 | 0.25 (≈ 0.536 µM) | 0.5 (≈ 1.07 µM)
COc1cccc(-c2cc(=O)n(CC[C@](C)(C(=O)NO)S(C)(=O)=O)cc2F)c1F [Example 17, (2R)-4-[5-fluoro-4-(2-fluoro-3-methoxyphenyl)-2-oxopyridin-1(2H)-yl]-N-hydroxy-2-methyl-2-(methylsulfonyl)butanamide] | 0.5 | > 64 | 0.5 (≈ 1.16 µM) | 1 (≈ 2.32 µM)
C[C@@](CCn1cc(F)c(-c2ccc3c(c2)CCO3)cc1=O)(C(=O)NO)S(C)(=O)=O [Example 5, (2R)-4-[4-(2,3-Dihydro-1-benzofuran-5-yl)-5-fluoro-2-oxopyridin-1(2H)-yl]-N-hydroxy-2-methyl-2-(methylsulfonyl)butanamide] | 0.822 | > 64 | 1 (≈ 2.36 µM) | 1 (≈ 2.36 µM)
CCOc1ccc(-c2cc(=O)n(CC[C@](C)(C(=O)NO)S(C)(=O)=O)cc2F)cc1 [Example 10, (2R)-4-[4-(4-Ethoxyphenyl)-5-fluoro-2-oxopyridin-1(2H)-yl]-N-hydroxy-2-methyl-2-(methylsulfonyl)butanamide] | 0.823 | > 64 | 0.25 (≈ 0.586 µM) | 1 (≈ 2.34 µM)
Cc1cccc(-c2cc(=O)n(CC[C@](C)(C(=O)NO)S(C)(=O)=O)cc2F)c1F [Example 2, (2R)-4-[5-Fluoro-4-(2-fluoro-3-methylphenyl)-2-oxopyridin-1(2H)-yl]-N-hydroxy-2-methyl-2-(methylsulfonyl)butanamide] | 0.595 | > 64 | 0.25 (≈ 0.603 µM) | 0.25 (≈ 0.603 µM)
C[C@@](CCn1cc(F)c(-c2ccc(F)c(F)c2)cc1=O)(C(=O)NO)S(C)(=O)=O [Example 6, (2R)-4-[4-(3,4-Difluorophenyl)-5-fluoro-2-oxopyridin-1(2H)-yl]-N-hydroxy-2-methyl-2-(methylsulfonyl)butanamide] | 0.833 | > 64 | 1 (≈ 2.39 µM) | 0.5 (≈ 1.2 µM)
C[C@@](CCn1cc(F)c(-c2ccc(-n3nccn3)c(F)c2)cc1=O)(C(=O)NO)S(C)(=O)=O [Example 36, (2R)-4-{5-Fluoro-4-[3-fluoro-4-(2H-1,2,3-triazol-2-yl)phenyl]-2-oxopyridin-1(2H)-yl}-N-hydroxy-2-methyl-2-(methylsulfonyl)butanamide] | 0.398 | > 64 | 0.5 (≈ 1.07 µM) | 1 (≈ 2.14 µM)
